Test results: ChEMBL document CHEMBL3244013, “Central nervous system activity of a novel class of annelated 1,4-benzodiazepines, aminomethylene-2,4-dihydro-1H-imidazo[1,2-a][1,4]benzodiazepin-1-ones” (J Med Chem, 1977)

Columns and labels:
Mus musculus [1] = test: Antianxiety activity in po dosed CD-1 mouse assessed as inhibition of foot shock-induced aggression after 30 mins relative to control; format: functional; conditions: CD-1, po, 0.5 h
Mus musculus [2] = test: Potentiation of chlorprothixene-induced sedative effect in po dosed CD-1 mouse assessed as loss of righting reflex; format: functional; conditions: CD-1, po
Mus musculus [3] = test: Anticonvulsant activity in po dosed CD-1 mouse assessed as protection against maximal electroshock-induced convulsion; format: functional; conditions: CD-1, po
Mus musculus [4] = test: Anticonvulsant activity in po dosed CD-1 mouse assessed as protection against strychnine-induced convulsion after 30 mins; format: functional; conditions: CD-1, po, 0.5 h
Mus musculus [5] = test: Anticonvulsant activity in po dosed CD-1 mouse assessed as protection against pentylenetetrazole-induced convulsion; format: functional; conditions: CD-1, po
Mus musculus [6] = test: Potentiation of hexobarbital-induced sedative effect in po dosed CD-1 mouse assessed as loss of righting reflex after 30 secs; format: functional; conditions: CD-1, po
Mus musculus [7] = test: Induction of muscle relaxation in po dosed CD-1 mouse after 30 mins by rotary drum test; format: functional; conditions: CD-1, po, 0.5 h
Mus musculus [8] = test: Acute toxicity in po dosed CD-1 mouse assessed as mortality after 24 hrs; format: organism-based; conditions: in vivo

Row | Compound | ED50 (Mus musculus [1]) [mg/kg] | ED50 (Mus musculus [2]) [mg/kg] | ED50 (Mus musculus [3]) [mg/kg] | ED50 (Mus musculus [4]) [mg/kg] | ED50 (Mus musculus [5]) [mg/kg] | ED50 (Mus musculus [6]) [mg/kg] | ED50 (Mus musculus [7]) [mg/kg] | ED50 (Mus musculus [8]) [mg/kg]
1 | CN1CCN(/C=C2\N=C3CN=C(c4ccccc4F)c4cc(Cl)ccc4N3C2=O)CC1 | 0.34 | 1.35 | 0.27 | 1.25 | 0.115 | 0.21 | 2.6 | > 1000
2 | CCN1CCN(/C=C2\N=C3CN=C(c4ccccc4)c4cc(Cl)ccc4N3C2=O)CC1 | 0.94 | 5 | 2.2 | 5.5 | 0.48 | 1.1 | 1.6 | > 1000
3 | CCCN/C=C1\N=C2CN=C(c3ccccc3Cl)c3cc(Cl)ccc3N2C1=O | 2.4 | 5.6 | > 30 | > 25 | 1 | 0.06 | 8 | > 1000
4 | O=C1/C(=C/N2CCNCC2)N=C2CN=C(c3ccccc3)c3cc(Cl)ccc3N12 | > 20 | 23 | > 50 | > 50 | 1.95 | 7.5 | > 50 | > 1000
